Results taken from PubChem BioAssay (NCI).
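Step 1: Grow cells in 96-well plates. Step 2: Expose to compound for 48 hours at 5 concentrations. Step 3: Interpolate endpoints linearly; if unreached, use highest concentration. GI50: concentration for 50% inhibition of growth. At the TGI there is no net growth.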

Tests used:
Test in all cases: DTP human tumour cell line panel, 48 h
[1] = tested on: DU-145 prostate
[2] = tested on: HCC-2998 colon
[3] = tested on: HL-60(TB) leukemia
[4] = tested on: HOP-92 NSCLC
[5] = tested on: K-562 leukemia
[6] = tested on: NCI-H460 lung
[7] = tested on: SK-MEL-2 melanoma
[8] = tested on: SW-620 colon
[9] = tested on: UACC-257 melanoma
[10] = tested on: COLO 205 colon

| Structure (SMILES) | GI50 [1] [µM] | TGI [1] [µM] | GI50 [2] [µM] | TGI [2] [µM] | GI50 [3] [µM] | TGI [3] [µM] | GI50 [4] [µM] | TGI [4] [µM] | GI50 [5] [µM] | TGI [5] [µM] | GI50 [6] [µM] | TGI [6] [µM] | GI50 [7] [µM] | TGI [7] [µM] | GI50 [8] [µM] | TGI [8] [µM] | GI50 [9] [µM] | TGI [9] [µM] | TGI [10] [µM] | GI50 [10] [µM] |
| --- | --- | --- | --- | --- | --- | --- | --- | --- | --- | --- | --- | --- | --- | --- | --- | --- | --- | --- | --- | --- |
| Cn1ccnc1C(=O)/C=C/c1ccc(C(=O)Nc2nc3ccccc3[nH]2)cc1 | 0.92 | 4.63 | 10.3 | > 25 | 7.87 | > 25 | 6.28 | > 25 | 0.829 | > 25 | 1.6 | > 25 | > 25 | > 25 | 0.808 | > 25 | > 25 | > 25 |  |  |
| Oc1ccc2ccccc2c1N=Nc1ccccc1 |  | > 100 |  | > 100 |  | > 100 |  | > 100 |  | > 100 |  | > 100 |  | > 100 |  | > 100 |  | > 100 | > 100 |  |
| CC(C)(C)CC(C)(C)c1ccc(OCCOCCSC(=N)N)cc1 | 1.84 | 3.34 | 1.25 | 2.56 | 1.79 | 3.58 | 1.89 | 7.92 | 1.51 | 3.58 | 1.75 | 3.29 | 2.02 | 3.49 | 1.65 | 3.34 | 1.69 | 3.18 | 3.12 | 1.65 |
| COc1ccc2c(c1)OC13Oc4cc(OC)ccc4C=C1CCCC3=C2 | > 100 | > 100 | > 100 | > 100 | > 100 | > 100 | 4.46 | > 100 | > 100 | > 100 | > 100 | > 100 | > 100 | > 100 | > 100 | > 100 | > 100 | > 100 | > 100 | > 100 |
| CC#CC(=O)N1CCC[C@H]1c1nc(-c2ccc(C(=O)Nc3ccccn3)cc2)c2c(N)nccn12 | 71 | > 100 | > 100 | > 100 | > 100 | > 100 | 25.1 | > 100 | > 88.2 | > 100 | 89.5 | > 100 | > 88.4 | > 100 | > 100 | > 100 | 50.1 | > 100 | > 100 | 85.4 |
| C[C@H]1[C@@H](OCC(CO[C@H]2O[C@@H]3O[C@@]4(C)CC[C@H]5[C@H](C)CC[C@@H]([C@H]2C)[C@@]35OO4)=NOCC(=O)O)OC2O[C@@]3(C)CC[C@H]4[C@H](C)CC[C@@H]1[C@@]24OO3 (stereo partly drawn) | 10.8 | 28.1 | 1.28 | 20.8 | < 0.01 | 13.3 | < 0.01 | 0.0621 | < 0.01 | 17.5 | 0.0537 | 19.5 | 0.346 | 14.8 | < 0.0137 | 18 | 0.0266 | 16.4 | 0.422 | < 0.0195 |
